Results on nine compounds are retold here after patent US20260364068A1, “ANTIVIRAL USE OF HETEROARYL DERIVATIVE COMPOUND” (UIF (University Industry Foundation), Yonsei University, priority 2022, published 2026).

Like-named read-outs stand apart in the source and are kept apart here.

Holding throughout (assay type): cell-based
For data set [1], the system named is Severe Acute Respiratory Syndrome Coronavirus Type 2. Nature of the data set: microbe, parasite or virus in culture. As to conditions: Calu-3, 10 uM, read-out: Virus replication inhibition efficacy.
Data set [2] has the same test system. The data set is described as follows: microbe, parasite or virus in culture. Particulars: Vero, 10 uM, read-out: Virus replication inhibition efficacy.
A short description of data set [3]: Cell viability measurement (MTS), Calu-3 cells. As to conditions: human. The procedure, abridged:
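Calu-3 cells at about 20% confluency treated with compounds at 1, 3 and 10 μM (0.5% v/v DMSO) for 48 h at 37 °C. MTS added for 1 h; A490 minus A690 background, normalized to DMSO control as 100%; mean of 2–6 repeats, binned into viability ranges.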

Data set [4] in a line: Cell viability measurement (MTS), Vero cells. Particulars: monkey. Here is the method:
Experimental Example 3: Cell Viability Measurement
Vero cell line (VERO01WCB-1201, Ministry of Food and Drug Safety, Republic of Korea), Calu-3 cell line (KCLB #30055, Korea Cell Line Bank (KCLB), Republic of Korea), CellTiter 96® AQueous One Solution Cell Proliferation Assay kit (Promega, cat. #G3582), and Infinite M200 microplate reader (Tecan).
Vero cells were cultured at 37 °C and 5% CO2 in DMEM medium supplemented with 10% fetal bovine serum, 100 units/mL penicillin, and 100 μg/mL streptomycin.
Vero cells or Calu-3 cells were seeded in 96-well microplates and cultured for 24 hours until the cell confluency reached 20%. After the incubation, compounds were treated in DMSO at concentrations (1, 3, and 10 μM) to reach 0.5% v/v in each well, and reacted at 37 °C for 48 hours. Into each well of the incubated 96-well microplate, 3-(4,5-dimethylthiazol-2-yl)-5-(3-carboxymethoxyphenyl)-2-(4-sulfophenyl)-2H-tetrazolium salt (MTS) assay solution [CellTiter 96® AQueous One Solution Cell Proliferation Assay kit (Promega)] mixed with DMEM medium at a ratio of 1:5, was dispensed at 100 μL/well and incubated at 37 °C for 1 hour. The 490 nm and 690 nm absorbance was then measured using an Infinite M200 instrument.
The cell viability (also, referred to as cell survival rate) (%) by compound treatment was calculated using the following analysis method. The 690 nm background absorbance value was subtracted from the measured 490 nm absorbance value. Then, to obtain the cell viability of each test group, the viability of the DMSO-treated group that was not treated with the compound was set to 100% and then the relative viability 1 of each compound was calculated. Two to six repeated tests were performed to obtain the results, and the mean values of the results were categorized into the following ranges and shown in Table 5 below (A: 80% survived, B: 50-80% survived, N/A: not tested)

Where [5] appears, read: virus strain NCCP-43344, 48 hours.
Where [6] appears, read: virus strain NCCP-43388, 48 hours.

`FC(F)(F)c1ccc2nc(-c3cccc(Nc4ccc(-c5cccnn5)cc4)c3)[nH]c2c1` [Example 23, N-(4-(pyridazin-3-yl)phenyl)-3-(6-(trifluoromethyl)-1H-benzo[d]imidazol-2-yl)aniline]: the inhibition at 10 µM in data set [1] (setting [5]) and in data set [2] (setting [5]) was above 60% in each case. The viability at 48 h, 1 µM in data set [3] and in data set [4] was above 80% in each case. Besides, the viability at 48 h, 3 µM was 50 to 80% in data set [3] and above 80% in data set [4].
Take `c1cc(Nc2ccc(-c3ccncn3)cc2)cc(-c2nc3ccccc3[nH]2)c1` [Example 22, N-[3-(1H-benzo[d]imidazol-2-yl)phenyl]-4-(pyrimidin-4-yl)aniline]: the inhibition at 10 µM in data set [1] (setting [5]) was above 60%. Also, in data set [2] (setting [5]), the inhibition at 10 µM is above 60%. In addition, the viability at 48 h, 1 µM in data set [3] is above 80%. In addition, in data set [4], the viability at 48 h, 1 µM is above 80%; the viability at 48 h, 3 µM was above 80%; the viability at 48 h, 10 µM fell in the range of 50 to 80%.
Turning to `FC(F)(F)c1cc2nc(-c3cccc(Nc4ccc(-c5ccccc5)nn4)c3)[nH]c2cc1Cl` [Example 8, N-{3-[6-chloro-5-(trifluoromethyl)-1H-benzo[d]imidazol-2-yl]phenyl}-6-phenylpyridazin-3-amine], the inhibition at 10 µM in data set [1] (setting [5]) lay in the range of 30 to 60%. In addition, the inhibition at 10 µM in data set [2] (setting [5]) lay within 30 to 60%. Besides, in data set [4], the viability at 48 h, 1 µM was above 80% and the viability at 48 h, 3 µM was above 80%.
Take `FC(F)(F)c1ccc2nc(-c3cccc(Nc4ccc(-c5ncccn5)cc4)c3)[nH]c2c1` [Example 27, N-[4-(pyrimidin-2-yl)phenyl]-3-[6-(trifluoromethyl)-1H-benzo[d]imidazol-2-yl]aniline]: the inhibition at 10 µM in data set [1] (setting [6]) is above 60%. For the same compound, the inhibition at 10 µM in data set [2] (setting [6]) was above 60%. In data set [4], this compound displayed a viability at 48 h, 1 µM above 80% and a viability at 48 h, 3 µM above 80%.
Turning to `FC(F)(F)c1ccc2nc(-c3cccc(Nc4ccc(-c5cncnc5)cc4)c3)[nH]c2c1` [Example 28, N-[4-(pyrimidin-5-yl)phenyl]-3-[6-(trifluoromethyl)-1H-benzo[d]imidazol-2-yl]aniline], the inhibition at 10 µM in data set [1] (setting [6]) and in data set [2] (setting [6]) was above 60% in each case. The same compound returned a viability at 48 h, 1 µM in data set [4] above 80%.
In the case of `c1cnc(-c2ccc(Nc3cccc(-c4nc5ccccc5[nH]4)c3)cc2)nc1` [Example 26, N-[3-(1H-benzo[d]imidazol-2-yl)phenyl]-4-(pyrimidin-2-yl)aniline], the inhibition at 10 µM in data set [1] (setting [5]) is above 60%. The inhibition at 10 µM in data set [2] (setting [5]) was above 60%. In data set [3], the viability at 48 h, 1 µM is above 80% and the viability at 48 h, 3 µM was 50 to 80%. In data set [4], this compound showed a viability at 48 h, 1 µM above 80% and a viability at 48 h, 10 µM above 80%.
Turning to `c1ccc(-c2ccc(Nc3cccc(-c4nc5ccccc5[nH]4)c3)cc2)nc1` [Example 20, 3-(1H-benzo[d]imidazol-2-yl)-N-(4-(pyridin-2-yl)phenyl)aniline], the inhibition at 10 µM in data set [1] (setting [6]) was above 60%. Moreover, in data set [2] (setting [6]), the inhibition at 10 µM is above 60%. Besides, in data set [3], the viability at 48 h, 1 µM was above 80% and the viability at 48 h, 3 µM lay in the range of 50 to 80%. Moreover, in data set [4], the viability at 48 h, 1 µM was above 80% and the viability at 48 h, 10 µM is 50 to 80%.
Regarding `FC(F)(F)c1ccc2nc(-c3cccc(Nc4ccc(-c5ccncn5)cc4)c3)[nH]c2c1` [Example 24, N-(4-(pyrimidin-4-yl)phenyl)-3-(6-(trifluoromethyl)-1H-benzo[d]imidazol-2-yl)aniline], the inhibition at 10 µM in data set [1] (setting [5]) and in data set [2] (setting [5]) was above 60% throughout. Moreover, the viability at 48 h, 1 µM in data set [3] and in data set [4] was above 80% each time. For the same compound, in data set [4], the viability at 48 h, 3 µM was above 80%.
As for `c1cc(Nc2ccc(-c3cccnn3)cc2)cc(-c2nc3ccccc3[nH]2)c1` [Example 21, 3-(1H-benzo[d]imidazol-2-yl)-N-(4-(pyridazin-3-yl)phenyl)aniline], the inhibition at 10 µM in data set [1] (setting [6]) and in data set [2] (setting [6]) was above 60% in each case. In data set [3], this compound came in with a viability at 48 h, 1 µM above 80%. The figures for the viability at 48 h, 3 µM in data set [3] and in data set [4] were 50 to 80% and above 80%, respectively. Besides, the viability at 48 h, 10 µM in data set [3] (10 μM) and in data set [4] was 50 to 80% in each case.
